Source: PMC12521730, “Quantitative dual-isotope preclinical SPECT/CT imaging and biodistribution of the mercury-197m/g theranostic pair with [^197m/gHg]HgCl2 and a [^197m/gHg]Hg-tetrathiol complex as a platform for radiopharmaceutical development” (EJNMMI Radiopharmacy and Chemistry, 2025)
“Also recorded” adds a separate entry of the source.

Experiments:
In vivo SPECT/CT imaging = experiment: In vivo SPECT/CT imaging; set-up: species or system healthy male C57BL/6 mice; settings: for organs of tracer accumulation (qualitative): 0-2 h post injection
Description: For animal injection, the tracer was prepared at high molar activity. Radiolabeling of H4Tetrathiol (10^–2 M in DMSO; 40 μL for imaging, 20 μL for bioD) (or DMSO, for [^197m/gHg]HgCl2 mice) with [^197m/gHg]HgCl2 (imaging: 26.7 MBq total m + g, 62 μL; bioD: 13.04 MBq total m + g, 31 μL) was performed in a mixture of ammonium acetate buffer (1 M; pH 7; 198 μL for imaging or 149 μL for bioD) and 6 M NaOH (72 μL or 38 μL required to achieve a pH of 7.5 after addition of activity, for imaging or BioD labeling, respectively). The reaction was allowed to stand for 1 h at 37 °C and quantitative (> 99%) non-isolated percentage radiochemical yield (%RCY) was confirmed via the iTLC methods mentioned above. Further, 100 µL of the reaction was diluted with 50 µL of PBS Tween-20 (0.01 M sodium phosphate, 0.15 M NaCl, 0.05% Tween-20) for imaging mice, or 50 µL of the reaction was diluted with 100 µL of PBS Tween-20 for BioD mice. The tracers were prepared immediately before injection to avoid radiolysis and minimize the tracer loss to any surfaces due to its lipophilicity. The injected doses of each isomer, ^197mHg and ^197gHg, were quantified by measuring an aliquot of known volume of each tracer preparation via HPGe gamma spectroscopy and decay corrected for time of injection using the Eqs. (1) and (2).
The study was conducted in compliance with the guidelines set by the Canadian Council on Animal Care (CCAC) and approved by the Animal Care Committee (ACC) at the University of British Columbia (A20-0132). A total of eight healthy male C57BL/6 mice weighing approximately 30 g for group 1 and 25 g for group 2 were used in the study. The mice were divided into two experimental groups: group 1 (n = 4) received free [^197m/gHg]HgCl2, while group 2 (n = 4) received [^197m/gHg]Hg-Tetrathiol. Within each group, one mouse was allocated for imaging, while the rest were designated for ex vivo biodistribution analysis. For SPECT imaging, the designated mice were anesthetized using isoflurane via a precision vaporizer. […] Once anesthetized, each imaging mouse received an intravenous (IV) injection via the lateral tail vein of 150 μL of [^197m/gHg]HgCl2 (0.492 MBq ^197mHg + 3.171 MBq ^197gHg) or [^197m/gHg]Hg-Tetrathiol (0.899 MBq ^197mHg + 4.230 MBq ^197gHg) in PBS Tween-20 (0.01 M Na Phosphate, 0.15 M NaCl, 0.05% Tween-20).
The animals were immediately placed in the scanner and whole-body scans were acquired dynamically during 120 min post-injection (6 frames × 20 min/frame). Throughout the entire scanning procedure, mice were kept under isoflurane anesthesia and body temperature was maintained constant using a heated imaging bed. […] These energy window settings yielded the optimum, and most robust quantification results based on the phantom experiments (vide supra). […]

[1] = Stable metal competition assay, AuCl3; assay type: physicochemical; settings: tenfold excess to chelator, 113 h, ambient temperature
Description: (§1) To the [^197m/gHg][Hg(Tetrathiol)]^2− (prepared as described above) or radiolabeling controls (DMSO instead of the ligand) 10 µL of a 10 mM metal cocktail (solution of biologically relevant metals, ZnCl2, FeCl3, CuCl2, MgCl2 and CoCl2), 10 mM AuCl3 or 10 mM of HgCl2, in water was added. The final solution contained tenfold excess of stable metal to the chelators and 10^6-fold excess of the stable metal to ^197m/gHg in solution. The mixtures were incubated at RT over 113 h. The proportion of intact radiolabeled complex was monitored over the course of 113 h using iTLC-SG and DMSA solution (50 mM, pH 5) as the mobile phase. Under these conditions, uncomplexed ^197m/gHg^2+ resulting from stable metal transchelation traveled to the solvent front (Rf = 1) while intact [^197m/gHg][Hg(Tetrathiol)]^2− remained at the baseline (Rf = 0).

[2] = LogD7.4 shake-flask measurement (n-octanol/PBS); assay type: physicochemical; settings: n-octanol/PBS pH 7.4, shake-flask
Description: Aliquots of [^197m/gHg][Hg(Tetrathiol)]^2− (prepared as described above) (10 μL) were added to a biphasic mixture of n-octanol (700 μL) and phosphate buffered saline (PBS, 700 μL, pH 7.4). The mixture was vortexed for 2 min at ambient temperature and then separated via centrifugation (10 min, 3000 rpm). Aliquots of n-octanol (100 μL) and PBS (100 μL) were collected, and the activity in each portion was determined via gamma spectroscopy. LogD7.4 is defined as log10[(activity in n-octanol phase)/(activity in buffer phase)].

[3] = Human serum stability assay (SDS-PAGE); assay type: in vitro ADME; settings: 37 °C, 72 h
Description: To the [^197m/gHg][Hg(Tetrathiol)]^2− (prepared as described above) or radiolabeling controls (DMSO instead of the ligand) was diluted in human serum (1:1 v/v dilution), and the solutions were incubated at 37 °C over 72 h. The metal-complex stabilities were monitored over 72 h using SDS-PAGE following our previously reported protocols (Randhawa et al. [2023]; Tosato et al. [2024]). At each time point, an aliquot (10 μL) of the reaction mixture was mixed with Laemmli sample buffer (10 μL) and was directly loaded onto the SDS-PAGE gel. The SDS-PAGE was run at ambient temperature and 150 V until the dye front reached the resolving gel (1 h). Following electrophoresis, the gel was scanned with the radio-TLC scanner to determine the percentage of intact complex. The same protocol was used with free [^197m/gHg]Hg^2+ and the ^197m/gHg^2+-complexes diluted in phosphate-buffered saline (PBS) (5 µL; 1:1 v/v dilution) to assess their electrophoretic mobility.

[4] = Stable metal competition assay, biologically relevant metal cocktail; assay type: physicochemical; settings: tenfold excess to chelator, 113 h, ambient temperature
Description: as §1

[5] = Stable metal competition assay, HgCl2; assay type: physicochemical; settings: tenfold excess HgCl2
Description: as §1

Question: With O=C(CC[S-])OCC(COC(=O)CC[S-])(COC(=O)CC[S-])COC(=O)CC[S-].[Hg+2] [[^197m/gHg]Hg-Tetrathiol] as the compound, how does the “organs of tracer accumulation (qualitative)” value (“organs of tracer accumulation” below) (In vivo SPECT/CT imaging) read?
Answer: predominantly accumulates in the spleen and liver

Question: What about the “organs of tracer accumulation” value (In vivo SPECT/CT imaging; listed as [^197m/gHg]Hg-tetrathiol) of the same compound?
Answer: tracer accumulation primarily in the liver and spleen

Question: And the “blood clearance and excretion (qualitative)” value (In vivo SPECT/CT imaging; compared with [197m/gHg]HgCl2)?
Answer: faster blood clearance and excretion through the reticuloendothelial system (RES)

Question: What about the “demetallation against AuCl3” value [1] of the same compound?
Answer: no signs of demetallation

Question: And the logD7.4 [2]?
Answer: 0.35 ± 0.1

Question: And the “intact complex in human serum” value [3]?
Answer: 86 ± 1%

Question: And the “demetallation against mixture of biologically relevant metals” value [4]?
Answer: no signs of demetallation

Question: What about the “intact complex in competition with HgCl2” value ([5]; 113 h) of the same compound?
Answer: 18 ± 10%

Question: And the “intact complex in competition with HgCl2” value ([5]; within 2 h)?
Answer: 71 ± 10%

Question: For [Cl][Hg][Cl] [[^197m/gHg]HgCl2], which “organs of tracer accumulation” value (In vivo SPECT/CT imaging) is on record?
Answer: primarily accumulating in the kidneys; also recorded: strong affinity for the kidneys
